Values quoted from earlier work, collected in patent publication US20170266323A1, “NEAR-INFRARED-II FLUORESCENT AGENTS, METHODS OF MAKING NEAR-INFRARED-II FLUORESCENT AGENTS, AND METHODS OF USING WATER-SOLUBLE NIR-II FLUORESCENT AGENTS” (The Board of Trustees of the Leland Stanford Junior …, priority 2013, published 2017).

Assays:
[1] = in DCM, rhodamine B in ethanol as reference, reported by one study

## ClC1=C(C=Cc2cc(-c3ccccc3)[s+]c(-c3ccccc3)c2)CCCC1=CC=C1C=C(c2ccccc2)SC(c2ccccc2)=C1.F[B-](F)(F)F [IR-1061, 4-[2-[2-Chloro-3-[(2,6-diphenyl-4H-thiopyran-4-ylidene)ethylidene]-1-cyclohexen-1-yl]ethenyl]-2,6-diphenylthiopyrylium tetrafluoroborate]
[1]
  fluorescence quantum efficiency: ~1.7±0.5%
other
  solubility in water: water insoluble
